The source of these data is patent US20230032216A1, “INTERLEUKIN-4-INDUCED GENE 1 (IL4I1) AND RESPECTIVE METABOLITES AS BIOMARKERS FOR CANCER” (DEUTSCHES KREBSFORSCHUNGSZENTRUM STIFTUNG DES ÖFFENTLICHEN …, priority 2019, published 2023).

A short description of series [1]: Conversion of I3P to KynA under cell-free conditions. The class given is physicochemical.
The subject of a further series is U-87MG cells. In words: Wound healing (migration) assay with Ctrl and IL4I1-expressing glioblastoma cells. In kind it is cell-based, human. The conditions noted are these: ectopically IL4I1-expressing U-87MG cells, 1 μM SR1, FIG. 3C. Here is the method: Cells were seeded in 2-well cell culture inserts (ibidi, 80209) placed in 24-well plates. For U-87MG cells, as well as Ctrl and IL4I1-expressing U-87MG cells, 3×10^4 cells in 100 μL medium per well of cell culture insert were seeded. In the case of Ctrl and IL4I1-expressing U-251MG cells, 4×10^4 in 100 μL medium per well of cell culture insert were seeded. Cells were incubated for 16 h, inserts were removed and 1 mL of complete DMEM medium was added to each well of the plate. Cell migration was monitored by taking pictures at indicated time points, until gap (500 μm+/−100 μm) was covered by cells. In the case where U-87MG cells were treated with I3P or SR1, treatments were applied at the time of seeding the cells in the 2 well cell culture inserts. In addition, after 16 h incubation time and insert removal, 1 mL of complete DMEM medium containing treatments was applied to cells and kept throughout the assay. For each independent experiment, 3 pictures per well were taken and each condition was carried out at least in 3 wells. Pictures were taken with an ECLIPSE Ti-E/B inverted microscope (Nikon) with the 4×objective and using the NIS Elements software version 4.13.04. Pictures were analyzed with TScratch software version 1.0 (Geback et al., 2009). Cell migration was assessed by calculating the percentage of covered area for each time point normalized to the area at the 0 h time point.

In series [2] the test system is advanced melanoma. The conditions noted are these: epacadostat in combination with the anti-PD-1 mAb pembrolizumab, advanced melanoma (Long et al., 2019); cited from earlier work.
Series [3] concerns advanced melanoma. In words: RNA-seq of advanced melanoma patients before and on nivolumab treatment (Riaz et al., GSE91061). The class given is in vivo, human. An excerpt: RNA-seq datasets-Raw counts and metadata were downloaded from GEO using GEOquery (Davis and Meltzer, 2007). The harmonized HT-Seq counts and Fragments Per Kilobase of transcript per Million mapped reads (FPKM) of TCGA datasets were downloaded using TCGAbiolinks (Colaprico et al., 2016) from Genomic Data Commons (GDC) (https://gdc.cancer.gov/), and only patients with the identifier “primary tumor” were retained, with the exception of melanoma that was split into datasets for primary and metastatic cohorts. The FPKM values were converted to transcripts per million (TPMs) (Li and Dewey, 2011). TPM data of normal tissues were downloaded from the Genotype-Tissue Expression (GTEx) dataset (https://gtexportal.org/home/). All TPM values were log 2 transformed. Raw counts of the Riaz et al. […] (Riaz et al., 2017) advanced melanoma dataset were downloaded from https://github.com/riazn/bms038_analysis, and based on principle component analysis one outlier patient pair was removed (Pt-84). RNA-seq counts were saved as DGELists (Robinson et al., 2010). Genes with less than 10 counts were filtered followed by trimmed mean of M values (TMM) normalization (Robinson and Oshlack, 2010) and variance modeling using voom (Law et al., 2014).

Where [4] appears, read: advanced melanoma patients, before vs after nivolumab, FIG. 8C, re-analysis of Riaz et al. 2017.

Consider `O=C(O)C(=O)Cc1c[nH]c2ccccc12` [I3P, Indole-3-pyruvic acid], for which the “Formation of KynA from I3P” value in series [1] (data not shown) is given as “formed spontaneously”. Further, the “Formation of KynA from I3P in the presence of H2O2” value in series [1] (with H2O2, data not shown) is recorded as “enhanced”.

On to `CC(C)n1cnc2c(NCCc3ccc(O)cc3)nc(-c3csc4ccccc34)nc21` [SR1], for which, in the series on U-87MG cells, the “IL4I1-mediated motility of AHR-proficient cells” value was “reversed”.

For the molecule `NS(=O)(=O)NCCNc1nonc1C(=NO)Nc1ccc(F)c(Br)c1` [epacadostat], the “Clinical benefit in phase III trial” value in the series with advanced melanoma [2] is “failed”.

“nivolumab: anti-PD-1 monoclonal antibody (mAb) nivolumab”: the “AHR activation (AHR signature)” value in the series on advanced melanoma [3] (advanced melanoma patients after nivolumab, FIG. 8D) is listed as “resulted in AHR activation”. Also, the “Hallmark of cancer gene set enrichment” value in the series with advanced melanoma [3] (advanced melanoma patients before vs on Nivolumab therapy, FIG. 10) is “strong upregulation of inflammatory hallmark gene signatures”. Besides, in the series with advanced melanoma [3] (setting [4]), the IDO1 expression entry is “induced” and the IL4I1 expression result is “induced”. The IL4I1 expression result in the series on advanced melanoma [3] (advanced melanoma patients, before vs after nivolumab, FIG. 8C, re-analysis of Riaz et al. 2017, listed as Nivolumab) was “higher expression of IL4I1”. Besides, in the series on advanced melanoma [3] (ipilimumab-naïve advanced melanoma patients, response to nivolumab, FIG. 8E), the “IL4I1 expression in ipilimumab-naïve patients” value was “significant IL4I1 increase”.
